According to patent US20220163532A1, “NUCLEAR-DERIVED EXOSOMES AND METHODS OF USE THEREOF” (Board of Regents, The University of Texas System, priority 2019, published 2022):

Tests used:
Type in all cases: cell-based, human
[1] = test system: OVCAR-5 and OVCAR-8 cells; test: MN quantification in ovarian cancer cells treated with genotoxic drugs (IF, Lamin A/C); conditions: topotecan 10 nM or olaparib 20 μM, vs DMSO
Procedure: IF experiments and MN quantification. Cells were plated at a density of 5×10^4 cells on sterile, 0.17-mm-thick coverslips (12-548-A, Thermo Fisher Scientific) placed at the bottom of six-well plates. The next day, cells were treated for 24 hours with either vehicle control dimethyl sulfoxide (DMSO; 1:1000 dilution; D2650, Sigma-Aldrich), 20 μM olaparib (O-9201, LC Laboratories), or 10 nM topotecan (T2705-50MG, Sigma-Aldrich). After 24 hours, the cells were washed with PBS and refed with the appropriate cell culture medium to grow for another 48 hours, for a total time of 72 hours after initial plating on the coverslips.
The drug-treated cells were first washed three times with PBS, fixed with 4% paraformaldehyde (PFA; 50-980-487, Thermo Fisher Scientific) diluted in PBS, and incubated at RT for 15 min with light rocking. […] Last, cells on coverslips were then washed four times with PBS and mounted on slides using ProLong Diamond Antifade Mountant (P36961, Thermo Fisher Scientific) and imaged with a Leica fluorescence microscope (Leica DM4000 M LED; Leica Microsystems) or an Andor Revolution XDi WD Spinning Disk Confocal microscope. For MN quantification, the number of MN in each 40× field was counted using 10 fields per sample. […]

[2] = test system: OVCAR-5 and OVCAR-8 cells; test: DNA-positive exosomes (nExo) from drug-treated ovarian cancer cells by imaging flow cytometry; conditions: topotecan 10 nM or olaparib 20 μM, parental cells treated 48 hours, vs DMSO
Procedure: (§1) Isolation of exosomes. The isolation method for exosomes that was used in this study followed the standard methods of the International Society of Extracellular Vesicles (Witwer et al., 2013). Cell lines described above were grown in the corresponding medium described above until 60 to 70% confluence was achieved. Cells were then washed twice with phosphate-buffered saline (PBS) and grown in corresponding medium containing 1% exosome-free FBS (EXO-FBS-250A-1, System Biosciences) plus 0.1% gentamicin for 48 hours. For exosome isolation, the harvested medium underwent serial centrifugation. First, the medium was spun down at 500g for 10 min to pellet any floating cells. Next, the supernatant was collected and spun down at 2000g for 30 min to pellet any residual cell debris. The resulting supernatant was then filtered through a 0.22-μm filter (SCGPUO5RE and SLGP033RS, Millipore-Sigma) to remove any remaining large vesicles. […] Exosome concentration and quantity were determined using NTA with a NanoSight NS300 instrument (Malvern Panalytical).
Exosome staining for imaging flow cytometry and analysis. For quantitative analysis and imaging flow cytometry of exosomes, the method described by Erdbrugger et al. (2014) using an Amnis ImageStreamX MarkII analyzer was adapted. […]

ovarian cancer cells = test: Nuclear proteins in exosomes from drug-treated ovarian cancer cells (Western blot); conditions: topotecan 10 nM or olaparib 20 μM
Procedure: as §1, with “vesicles. After filtration, the medium was spun down at 40,000 rpm for 2 hours at 4° C. in an ultracentrifuge (Optima XE, Beckman Coulter) with a Ti 45 fixed-angle rotor (339160, Beckman Coulter).” for “vesicles.”
Western blotting. […] Protein concentration was determined using the Micro BCA Protein Assay Kit (23235, Thermo Fisher Scientific) according to the manufacturer's protocol. […]

O=C(c1cc(Cc2n[nH]c(=O)c3ccccc23)ccc1F)N1CCN(C(=O)C2CC2)CC1 [olaparib]
number of MN [1]: increased significantly | population of exosomes containing gDNA (proportion of nExo secreted) [2]: increased | population of exosomes containing nuclear proteins (ovarian cancer cells): increased
